From article PMC11538350, “Synthetic studies on the tetrasubstituted D-ring of cystobactamids lead to potent terephthalic acid antibiotics” (Communications Chemistry, 2024)
Converted amounts (≈) assume the structure as drawn.

Columns and labels:
E. faec. DSM-17050 (VRE) = assay: MIC assay; type: cell-based, Enterococcus faecium; settings: Enterococcus; read-out: MIC E. faec. DSM-17050 (VRE)
Procedure: (§1) All cystobactamids were evaluated in MIC-assays on a panel of representative ESKAPE strains with focus on A. baumannii (Tables 1 and 2). Compared to our previous work[10],[17],[18], we specifically included more challenging test strains with known resistances against gyrase inhibitors.
(§2) 2.1 Materials and Methods
(§3) Strains were cultivated according to standard procedures. Bacterial cryo-cultures were
(§4) resuspended into fresh MHBII (cation adjusted) medium. The resuspension
(§5) assay plate (Corning, #3788).
(§6) in parallel as a positive control. […]

[1] = test system: S. pneum. DSM-11865 (PRSP); assay: MIC assay; type: cell-based; settings: Streptococcus pneumoniae; read-out: MIC S. pneum. DSM-11865 (PRSP)
Procedure: as §1, §2, §3, §4, §5, §6

A. baum. ATCC BAA-1710 = assay: MIC assay; type: cell-based; settings: Acinetobacter baumannii, ATCCBAA1710; read-out: MIC A. baum. ATCC BAA-1710
Procedure: as §1, §2, §3, §4, §5, §6

P. ae. PA14ΔmexAB = assay: MIC assay; type: cell-based; settings: Pseudomonas aeruginosa, read-out: MIC P. ae. PA14ΔmexAB
Procedure: as §1, §2, §3, §4, §5, §6

E. coli LM705 = assay: MIC assay; type: cell-based; settings: Escherichia coli, LM705, read-out: MIC E. coli LM705
Procedure: as §1, §2, §3, §4, §5, §6

A. baum. DSM-30008 = assay: MIC assay; type: cell-based; settings: Acinetobacter baumannii, DSM30008; reference strain; read-out: MIC A. baum. DSM-30008
Procedure: as §1, §2, §3, §4, §5, §6

A. baum. R835 = assay: MIC assay; type: cell-based; settings: Acinetobacter baumannii; read-out: MIC A. baum. R835
Procedure: as §1, §2, §3, §4, §5, §6

S. aur. ATCC-29213 = assay: MIC assay; type: cell-based; settings: Staphylococcus aureus, ATCC29213; reference strain; read-out: MIC S. aur. ATCC-29213
Procedure: as §1, §2, §3, §4, §5, §6

A. baum. CIP-107292 = assay: MIC assay; type: cell-based; settings: Acinetobacter baumannii, CIP107292; read-out: MIC A. baum. CIP-107292
Procedure: as §1, §2, §3, §4, §5, §6

K. pneum. CIP-104298 = assay: MIC assay; type: cell-based; settings: Klebsiella pneumoniae, CIP104298; reference strain; read-out: MIC K. pneum. CIP-104298
Procedure: as §1, §2, §3, §4, §5, §6

E. coli ATCC-25922 = assay: MIC assay; type: cell-based; settings: Escherichia coli, ATCC25922; reference strain; read-out: MIC E. coli ATCC-25922
Procedure: as §1, §2, §3, §4, §5, §6

K. pneum. KP10581 = assay: MIC assay; type: cell-based; settings: Klebsiella pneumoniae; read-out: MIC K. pneum. KP10581
Procedure: as §1, §2, §3, §4, §5, §6

E. cloacae ATCC BAA-2468 = assay: MIC assay; type: cell-based; settings: Enterobacter cloacae, ATCCBAA2468; read-out: MIC E. cloacae ATCC BAA-2468
Procedure: as §1, §2, §3, §4, §5, §6

A. baum. CIP-105742 = assay: MIC assay; type: cell-based; settings: Acinetobacter baumannii, CIP105742; read-out: MIC A. baum. CIP-105742
Procedure: as §1, §2, §3, §4, §5, §6

K. pneum. R-1525 = assay: MIC assay; type: cell-based; settings: Klebsiella pneumoniae; read-out: MIC K. pneum. R-1525
Procedure: as §1, §2, §3, §4, §5, §6

P. ae. PA14 = assay: MIC assay; type: cell-based; settings: Pseudomonas aeruginosa, PA14; reference strain; read-out: MIC P. ae. PA14
Procedure: as §1, §2, §3, §4, §5, §6

E. ae. CIP 106754 = assay: MIC assay; type: cell-based, Enterobacter aerogenes; settings: Klebsiella aerogenes, CIP106754, read-out: MIC E. ae. CIP 106754
Procedure: as §1, §2, §3, §4, §5, §6

ESKAPE strains = assay: MIC-assays on a panel of representative ESKAPE strains, summary in words; type: cell-based; settings: summary of the MIC tables
Procedure: as §1, §2, §3, §4, §5, §6

[2] = metabolic stability assay, mouse microsomes; settings: Table S4
[3] = for T1/2 PLASMA (H): human plasma; for T1/2 PLASMA (M): mouse plasma
Procedure: 2.1 Materials and Methods […]
Determination of in vitro ADME properties
7, 8, 11 and 42. All samples were analysed via HPLC -MS/MS.
HPLC-MS/MS analysis of cystobactamids
AB Sciex QTrap 6500plus mass spectrometer. LC conditions were as follows: column:
Samples were run under acidic
For plasma stability experiments, samples were procured from commercial sources.
Human plasma was obtained from Antibodies-online (catalog no. ABIN5706569), and mouse plasma was obtained from Tebubio (catalog no. D408-04-0050).
The methods were performed in accordance with relevant guidelines and regulations and approved by the Helmholtz Centre for Infection Research. […]

[4] = metabolic stability assay, human microsomes; settings: second microsome column of Table S4, head prints (M); mouse and human microsomes

Structure (SMILES) | MIC (E. faec. DSM-17050 (VRE)) | MIC [1] | MIC (A. baum. ATCC BAA-1710) | MIC (P. ae. PA14ΔmexAB) | MIC (E. coli LM705) | MIC (A. baum. DSM-30008) | MIC (A. baum. R835) | MIC (S. aur. ATCC-29213) | MIC (A. baum. CIP-107292) | MIC (K. pneum. CIP-104298) | MIC (E. coli ATCC-25922) | MIC (K. pneum. KP10581) | MIC (E. cloacae ATCC BAA-2468) | MIC (A. baum. CIP-105742) | MIC (K. pneum. R-1525) | MIC (P. ae. PA14) | MIC (E. ae. CIP 106754) | antibacterial activity on the pathogen panel, in words (ESKAPE strains) | T1/2 MICROSOMES (M) [2] | T1/2 PLASMA (H) [3] | other results
CO[C@@H](C(N)=O)[C@H](NC(=O)c1ccc(NC(=O)c2ccc(C#N)cc2)cc1)C(=O)Nc1ccc(C(=O)Nc2ccc(C(=O)Nc3ccc(C(=O)O)cc3)c(C(F)F)c2OC(C)C)cc1 [Cmpd. 9] | > 64 µg/mL | > 64 µg/mL | > 8 µg/mL | > 64 µg/mL | > 64 µg/mL | > 8 µg/mL | > 8 µg/mL | > 64 µg/mL | > 8 µg/mL | > 64 µg/mL | > 8 µg/mL | > 64 µg/mL | > 64 µg/mL | > 8 µg/mL | > 64 µg/mL | > 64 µg/mL | > 64 µg/mL | complete elimination of activity |  |  | 
C#CC[C@H](NC(=O)c1ccc(NC(=O)c2ccc(C#N)cc2)cc1)C(=O)Nc1ccc(C(=O)Nc2ccc(C(=O)Nc3ccc(C(=O)O)cc3)nc2OC(C)C)cc1 [Cmpd. 8] | 0.25 µg/mL (≈ 0.321 µM) |  | > 64 µg/mL |  | > 64 µg/mL |  | > 64 µg/mL | > 64 µg/mL | 8 µg/mL (≈ 10.3 µM) |  | ≤ 0.03 µg/mL | > 64 µg/mL | > 64 µg/mL |  | > 64 µg/mL |  | > 64 µg/mL |  | > 1 h | > 4 h | T1/2 PLASMA (M) [3]: > 4 h; T1/2 MICROSOMES (M) [4]: > 1 h
C#CC[C@H](NC(=O)c1ccc(NC(=O)c2ccc(C#N)cc2)cc1)C(=O)Nc1ccc(C(=O)Nc2ccc(CNc3ccc(C(=O)O)cc3)c(O)c2OC(C)C)cc1 [Cmpd. 41] | 16 to 32 µg/mL (≈ 20.5 to 41.1 µM) | > 64 µg/mL | 1 to 2 µg/mL (≈ 1.28 to 2.57 µM) | > 64 µg/mL | > 64 µg/mL | > 8 µg/mL | > 8 µg/mL | 16 to 32 µg/mL (≈ 20.5 to 41.1 µM) | > 8 µg/mL | > 64 µg/mL | > 64 µg/mL | > 64 µg/mL | > 64 µg/mL | > 8 µg/mL | > 64 µg/mL | > 64 µg/mL | > 64 µg/mL | inactive |  |  | 
C#CC[C@H](NC(=O)c1ccc(NC(=O)c2ccc(C#N)cc2)cc1)C(=O)Nc1ccc(C(=O)Nc2ccc(C(=O)Nc3ccc(C(=O)O)cc3)c(F)c2OC(C)C)cc1 [Cmpd. 4] | 4 µg/mL (≈ 5.03 µM) | > 64 µg/mL | > 8 µg/mL | > 64 µg/mL | > 64 µg/mL | 0.06 µg/mL (≈ 0.0755 µM) | > 8 µg/mL | > 64 µg/mL | > 8 µg/mL | > 64 µg/mL | 4 µg/mL (≈ 5.03 µM) | > 64 µg/mL | > 64 µg/mL | 0.25 to 0.5 µg/mL (≈ 0.315 to 0.629 µM) | > 64 µg/mL | > 64 µg/mL | > 64 µg/mL |  | > 1 h | > 4 h | T1/2 PLASMA (M) [3]: > 4 h; T1/2 MICROSOMES (M) [4]: > 1 h
C#CC[C@H](NC(=O)c1ccc(NC(=O)c2ccc(C#N)cc2)cc1)C(=O)Nc1ccc(C(=O)Nc2ccc(-c3ccc(C(=O)O)cc3)c(O)c2OC(C)C)cc1 [Cmpd. 44] | < 0.03 µg/mL | > 64 µg/mL | > 64 µg/mL | > 64 µg/mL | > 64 µg/mL | > 64 µg/mL | > 64 µg/mL | > 64 µg/mL | > 64 µg/mL | > 64 µg/mL | > 64 µg/mL | > 64 µg/mL | > 64 µg/mL | > 64 µg/mL | > 64 µg/mL | > 64 µg/mL | > 64 µg/mL | inactive |  |  | 
C#CC[C@H](NC(=O)c1ccc(NC(=O)c2ccc(C#N)cc2)cc1)C(=O)Nc1ccc(C(=O)Nc2ccc(C(=O)Nc3ccc(C(=O)O)cc3)c(N)c2OC(C)C)cc1 [Cmpd. 7] | > 64 µg/mL | 0.2 µg/mL (≈ 0.253 µM) | > 64 µg/mL |  | > 64 µg/mL |  | > 64 µg/mL | > 64 µg/mL | > 64 µg/mL |  | 0.005 µg/mL (≈ 0.00631 µM) | > 64 µg/mL | > 64 µg/mL |  | > 64 µg/mL |  | > 64 µg/mL |  | > 1 h | > 4 h | T1/2 PLASMA (M) [3]: > 4 h; T1/2 MICROSOMES (M) [4]: > 1 h
C#CC[C@H](NC(=O)c1ccc(NC(=O)c2ccc(C#N)cc2)cc1)C(=O)Nc1ccc(C(=O)Nc2ccc(-c3cn(-c4ccc(C(=O)O)cc4)nn3)c(O)c2OC(C)C)cc1 [Cmpd. 43] | > 64 µg/mL | > 64 µg/mL | > 8 µg/mL | > 64 µg/mL | > 64 µg/mL | > 8 µg/mL | > 8 µg/mL | > 64 µg/mL | > 8 µg/mL | > 64 µg/mL | > 64 µg/mL | > 64 µg/mL | > 64 µg/mL | > 8 µg/mL | > 64 µg/mL | > 64 µg/mL | > 64 µg/mL | inactive |  |  | 
